Reference: patent US20090082203A1, “INSECTICIDAL BIS(SUBSTITUTED PHENYL)-1-{[4-(SATURATED HETEROCYCLYL-SUBSTITUTED)PHENYLMETHYL]- (4-PIPERIDYL)}METHANE DERIVATIVES” (priority 2004, published 2009)

System: tobacco budworm (Heliothis virescens [Fabricius])
Test: surface-treated diet test against tobacco budworm
Type: in vivo
Details: for Percent Growth Inhibition: inhibition of insect weight relative to untreated controls
Method: Candidate insecticides were evaluated for activity against the tobacco budworm (Heliothis virescens [Fabricius]) in a surface-treated diet test.
In this test one mL of molten (65-70° C.) wheat germ-based artificial diet was pipetted into each well of a four by six (24 well) multi-well plate (ID# 430345-15.5 mm dia.×17.6 mm deep; Corning Costar Corp., One Alewife Center, Cambridge, Mass. 02140). The diet was allowed to cool to ambient temperature before treatment with candidate insecticide.
For a determination of insecticidal activity, solutions of the candidate insecticides were prepared for testing using a Packard 204DT Multiprobe® Robotic System (Packard Instrument Company, 800 Research Parkway, Meriden, Conn. 06450), in which the robot first diluted a standard 50 millimolar DMSO solution of candidate insecticide with a 1:1 water/acetone solution (V/V) in a ratio of 1:7 stock solution to water/acetone. The robot subsequently pipetted 40 microliters of the so-prepared solution onto the surface of the diet in each of three wells in the 24 multi-well plate. The process was repeated with solutions of seven other candidate insecticides. Once treated, the contents of the multi-well plate were allowed to dry, leaving 0.25 millimoles of candidate insecticide on the surface of the diet, or a concentration of 0.25 millimolar. Appropriate untreated controls containing only DMSO on the diet surface were also included in this test.
For evaluations of the insecticidal activity of a candidate insecticide at varying rates of application, the test was established as described above using sub-multiples of the standard 50 millimolar DMSO solution of candidate insecticide. For example, the standard 50 millimolar solution was diluted by the robot with DMSO to give 5, 0.5, 0.05, 0.005, 0.0005 millimolar, or more dilute solutions of the candidate insecticide. In these evaluations there were six replicates of each rate of application placed on the surface of the diet in the 24 multi-well plate, for a total of four rates of application of candidate insecticide in each plate.
In each well of the test plate was placed one second instar tobacco budworm larvae, each weighing approximately five milligrams. After the larvae were placed in each well, the plate was sealed with clear polyfilm adhesive tape. The tape over each well was perforated to ensure an adequate air supply. The plates were then held in a growth chamber at 25° C. and 60% relative humidity for five days (light 14 hours/day).
After the five-day exposure period insecticidal activity for each rate of application of candidate insecticide was assessed as percent inhibition of insect weight relative to the weight of insects from untreated controls, and percent mortality when compared to the total number of insects infested.
The test compounds of formula I are identified by numbers that correspond to those in Table 1.

[1] = 0.25 millimolar on the surface of the diet, second instar larvae, five-day exposure, compared to the total number of insects infested
[2] = 0.25 millimolar on the surface of the diet, second instar larvae, five-day exposure

Compound	Percent Mortality [1] [%]	Percent Growth Inhibition [2] [%]	Percent Mortality (in vivo) [%]
C[C@H]1OC(c2ccc(CN3CCC(C(O)(c4ccc(OC(F)(F)F)cc4)c4ccc(OC(F)(F)F)cc4)CC3)cc2)O[C@@H]1C (relative stereo) [Compound 120]	100	100	–
C[C@H]1OC(c2ccc(C[N+]3([O-])CCC(C(O)(c4ccc(OC(F)(F)F)cc4)c4ccc(OC(F)(F)F)cc4)CC3)cc2)O[C@@H]1C (relative stereo) [Compound 124]	100	100	–
[O-][N+]1(Cc2ccc(C3O[C@@H]4CCCC[C@H]4O3)cc2)CCC(C(O)(c2ccc(OC(F)(F)F)cc2)c2ccc(OC(F)(F)F)cc2)CC1 (relative stereo) [Compound 128]	100	100	–
OC(c1ccc(OC(F)(F)F)cc1)(c1ccc(OC(F)(F)F)cc1)C1CCN(Cc2ccc(C3OCCO3)cc2)CC1 [Compound 1]	–	100	100
[O-][N+]1(Cc2ccc(C3OCCO3)cc2)CCC(C(O)(c2ccc(OC(F)(F)F)cc2)c2ccc(OC(F)(F)F)cc2)CC1 (centres unmarked) [Compound 2]	–	100	100
CC1COC(c2ccc(CN3CCC(C(O)(c4ccc(OC(F)(F)F)cc4)c4ccc(OC(F)(F)F)cc4)CC3)cc2)O1 (centres unmarked) [Compound 3]	100	100	–
OC(c1ccc(OC(F)(F)F)cc1)(c1ccc(OC(F)(F)F)cc1)C1CCN(Cc2ccc(C3OCCCO3)cc2)CC1 [Compound 4]	100	100	–
[O-][N+]1(Cc2ccc(C3OCCCO3)cc2)CCC(C(O)(c2ccc(OC(F)(F)F)cc2)c2ccc(OC(F)(F)F)cc2)CC1 (centres unmarked) [Compound 5]	100	100	–
[O-][N+]1(Cc2ccc(C3OCCCCO3)cc2)CCC(C(O)(c2ccc(OC(F)(F)F)cc2)c2ccc(OC(F)(F)F)cc2)CC1 (centres unmarked) [Compound 7]	100	100	–
CC1(c2ccc(CN3CCC(C(O)(c4ccc(OC(F)(F)F)cc4)c4ccc(OC(F)(F)F)cc4)CC3)cc2)OCCO1 [Compound 8]	100	100	–
CC1COC(c2ccc(C[N+]3([O-])CCC(C(O)(c4ccc(OC(F)(F)F)cc4)c4ccc(OC(F)(F)F)cc4)CC3)cc2)O1 (centres unmarked) [Compound 9]	100	100	–
CC1(c2ccc(CN3CCC(C(O)(c4ccc(OC(F)(F)F)cc4)c4ccc(OC(F)(F)F)cc4)CC3)cc2)OCCCO1 [Compound 11]	100	100	–
OC(c1ccc(OC(F)(F)F)cc1)(c1ccc(OC(F)(F)F)cc1)C1CCN(Cc2ccc(C3SCCS3)cc2)CC1 [Compound 15]	100	100	–
OC(c1ccc(OC(F)(F)F)cc1)(c1ccc(OC(F)(F)F)cc1)C1CCN(Cc2ccc(C3OCCS3)cc2)CC1 (centres unmarked) [Compound 17]	100	100	–
CN1CCN(C)C1c1ccc(CN2CCC(C(O)(c3ccc(OC(F)(F)F)cc3)c3ccc(OC(F)(F)F)cc3)CC2)cc1 [Compound 25]	100	100	–
CC1(C)COC(c2ccc(CN3CCC(C(O)(c4ccc(OC(F)(F)F)cc4)c4ccc(OC(F)(F)F)cc4)CC3)cc2)OC1 [Compound 39]	100	100	–
OC(c1ccc(OC(F)(F)F)cc1)(c1ccc(OC(F)(F)F)cc1)C1CCN(Cc2ccc(C3OCC4(CC4)CO3)cc2)CC1 [Compound 45]	100	100	–

Compound	Percent Mortality [1] [%]	Percent Growth Inhibition [2] [%]	Percent Mortality (in vivo) [%]
CC1CCOC(c2ccc(CN3CCC(C(O)(c4ccc(OC(F)(F)F)cc4)c4ccc(OC(F)(F)F)cc4)CC3)cc2)O1 (centres unmarked) [Compound 47]	67	100	–
CCC1COC(c2ccc(CN3CCC(C(O)(c4ccc(OC(F)(F)F)cc4)c4ccc(OC(F)(F)F)cc4)CC3)cc2)O1 (centres unmarked) [Compound 48]	100	100	–
CC(C)(C)C1COC(c2ccc(CN3CCC(C(O)(c4ccc(OC(F)(F)F)cc4)c4ccc(OC(F)(F)F)cc4)CC3)cc2)O1 (centres unmarked) [Compound 50]	100	100	–
COCC1COC(c2ccc(CN3CCC(C(O)(c4ccc(OC(F)(F)F)cc4)c4ccc(OC(F)(F)F)cc4)CC3)cc2)O1 (centres unmarked) [Compound 51]	100	100	–
C=CC1COC(c2ccc(CN3CCC(C(O)(c4ccc(OC(F)(F)F)cc4)c4ccc(OC(F)(F)F)cc4)CC3)cc2)O1 (centres unmarked) [Compound 52]	100	100	–
OC(c1ccc(OC(F)(F)F)cc1)(c1ccc(OC(F)(F)F)cc1)C1CCN(Cc2ccc(C3OCC(c4ccccc4)O3)cc2)CC1 (centres unmarked) [Compound 53]	100	100	–
OC(c1ccc(OC(F)(F)F)cc1)(c1ccc(OC(F)(F)F)cc1)C1CCN(Cc2ccc(C3OCCC(c4ccccc4)O3)cc2)CC1 (centres unmarked) [Compound 55]	100	100	–
OC(c1ccc(OC(F)(F)F)cc1)(c1ccc(OC(F)(F)F)cc1)C1CCN(Cc2ccc(C3(c4ccccc4)OCCO3)cc2)CC1 [Compound 57]	100	100	–
OC(c1ccc(OC(F)(F)F)cc1)(c1ccc(OC(F)(F)F)cc1)C1CCN(Cc2ccc(C3OCC=CCO3)cc2)CC1 [Compound 58]	100	100	–
CCCCN1CCSC1c1ccc(CN2CCC(C(O)(c3ccc(OC(F)(F)F)cc3)c3ccc(OC(F)(F)F)cc3)CC2)cc1 (centres unmarked) [Compound 59]	100	100	–
[O-][N+]1(Cc2ccc(C3OCC(c4ccccc4)O3)cc2)CCC(C(O)(c2ccc(OC(F)(F)F)cc2)c2ccc(OC(F)(F)F)cc2)CC1 (centres unmarked) [Compound 60]	100	100	–
COCC1COC(c2ccc(C[N+]3([O-])CCC(C(O)(c4ccc(OC(F)(F)F)cc4)c4ccc(OC(F)(F)F)cc4)CC3)cc2)O1 (centres unmarked) [Compound 61]	100	100	–
CCC1COC(c2ccc(C[N+]3([O-])CCC(C(O)(c4ccc(OC(F)(F)F)cc4)c4ccc(OC(F)(F)F)cc4)CC3)cc2)O1 (centres unmarked) [Compound 62]	100	100	–
[O-][N+]1(Cc2ccc(C3OCC=CCO3)cc2)CCC(C(O)(c2ccc(OC(F)(F)F)cc2)c2ccc(OC(F)(F)F)cc2)CC1 (centres unmarked) [Compound 63]	100	100	–
[O-][N+]1(Cc2ccc(C3(Cc4ccccc4)OCCO3)cc2)CCC(C(O)(c2ccc(OC(F)(F)F)cc2)c2ccc(OC(F)(F)F)cc2)CC1 (centres unmarked) [Compound 65]	67	100	–
OC(c1ccc(OC(F)(F)F)cc1)(c1ccc(OC(F)(F)F)cc1)C1CCN(Cc2ccc(C3(Cc4ccccc4)OCCO3)cc2)CC1 [Compound 66]	67	100	–
[O-][N+]1(Cc2ccc(C3(COc4ccccc4)OCCO3)cc2)CCC(C(O)(c2ccc(OC(F)(F)F)cc2)c2ccc(OC(F)(F)F)cc2)CC1 (centres unmarked) [Compound 67]	100	100	–
